Measured values: US20230295118A1 (EnhancedBio Inc., priority 2022, published 2023)

What was measured:
Type in all cases: cell-based
[1] = tested on: mantle cell lymphoma cell (Mino or JeKo-1); test: Antiproliferative effect, MTS cell viability assay; settings: 72 h; for IC50: mantle cell lymphoma cell (Mino or JeKo-1), MTS assay, read-out: IC50 (anti-proliferation); for inhibition of cell proliferation of Mino cells: 0-1 μM, result in words
Method in brief: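 Mino cells treated with compounds at 0, 0.0001, 0.001, 0.01, 0.1, 1 μM for 72 h; palbociclib and abemaciclib as positive controls. Viability by MTS, formazan absorbance read at 490 nm.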

CDK4 = biological target: T1, CDK4 (Homo sapiens, UniProt P11802); test: CDK4 degradation (DC50, Dmax)
T1 construct: endogenous in cells
T1 sequence (P11802 whole entry): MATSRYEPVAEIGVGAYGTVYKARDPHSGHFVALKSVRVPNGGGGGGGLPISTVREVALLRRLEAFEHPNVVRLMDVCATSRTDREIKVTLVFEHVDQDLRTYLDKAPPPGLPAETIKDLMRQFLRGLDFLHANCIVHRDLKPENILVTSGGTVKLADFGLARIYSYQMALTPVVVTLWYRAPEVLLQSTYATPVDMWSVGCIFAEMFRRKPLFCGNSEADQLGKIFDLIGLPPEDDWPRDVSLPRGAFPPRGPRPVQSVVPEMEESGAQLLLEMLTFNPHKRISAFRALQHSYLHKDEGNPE

CDK6 = biological target: T2, CDK6 (Homo sapiens, UniProt Q00534); test: CDK6 degradation (DC50, Dmax)
T2 construct: endogenous in cells
T2 sequence (Q00534 whole entry): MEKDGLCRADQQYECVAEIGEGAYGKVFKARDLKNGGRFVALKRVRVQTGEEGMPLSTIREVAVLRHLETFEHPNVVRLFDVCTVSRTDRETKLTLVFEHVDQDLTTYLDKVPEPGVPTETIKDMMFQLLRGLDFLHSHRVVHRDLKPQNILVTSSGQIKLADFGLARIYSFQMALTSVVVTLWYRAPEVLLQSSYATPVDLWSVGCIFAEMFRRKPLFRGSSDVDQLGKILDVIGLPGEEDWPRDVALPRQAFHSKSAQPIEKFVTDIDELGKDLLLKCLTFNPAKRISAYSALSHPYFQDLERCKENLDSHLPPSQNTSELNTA

Question: What does the source list for `CC(=O)c1c(C)c2cnc(Nc3ccc(N4CCN(CC5CCN(c6ccc7c(c6)C(=O)N(C6CCC(=O)NC6=O)C7=O)CC5)CC4)cn3)nc2n(C2CCCC2)c1=O` (stereo not shown) [Compound 65, 5-(4-((4-(6-((6-acetyl-8-cyclopentyl-5-methyl-7-oxo-7,8-dihydropyrido[2,3-d]pyrimidin-2-yl)amino)pyridin-3-yl)piperazin-1-yl)methyl)piperidin-1-yl)-2-(2,6-dioxopiperidin-3-yl) isoindoline-1,3-dione]?
Answer: IC50 [1]: < 50 nM; inhibition of cell proliferation of Mino cells [1]: dose-dependent inhibition of cell proliferation; DC50 (CDK4): < 50 nM; Dmax (CDK4): > 80%; DC50 (CDK6): < 50 nM; Dmax (CDK6): > 80%

Question: Which results are given for `CC(=O)c1c(C)c2cnc(Nc3ccc(N4CCN(CC5CCN(c6ccc7c(c6)CN(C6CCC(=O)NC6=O)C7=O)CC5)CC4)cn3)nc2n(C2CCCC2)c1=O` (stereo not shown) [Compound 66, 3-(5-(4-((4-(6-((6-acetyl-8-cyclopentyl-5-methyl-7-oxo-7,8-dihydropyrido[2,3-d]pyrimidin-2-yl)amino)pyridin-3-yl)piperazin-1-yl)methyl)piperidin-1-yl)-1-oxoisoindolin-2-yl)piperidine-2,6-dione]?
Answer: IC50 [1]: < 50 nM; DC50 (CDK4): 50 to 200 nM; Dmax (CDK4): > 80%; DC50 (CDK6): < 50 nM; Dmax (CDK6): > 80%

Question: How did the IC50 [1] turn out when `CC(=O)c1c(C)c2cnc(Nc3ccc(N4CCN(CCN5CCN(c6ccc7c(c6)C(=O)N(C6CCC(=O)NC6=O)C7=O)CC5)CC4)cn3)nc2n(C2CCCC2)c1=O` (stereo not shown) [Compound 67, 5-(4-(2-(4-(6-((6-acetyl-8-cyclopentyl-5-methyl-7-oxo-7,8-dihydropyrido[2,3-d]pyrimidin-2-yl)amino)pyridin-3-yl)piperazin-1-yl)ethyl)piperazin-1-yl)-2-(2,6-dioxopiperidin-3-yl) isoindoline-1,3-dione] was run?
Answer: The IC50 was under 50 nM.

Question: What about the DC50 (CDK4) of the same compound?
Answer: Its DC50 is under 50 nM.

Question: What about the Dmax (CDK4) of the same compound?
Answer: Its Dmax is over 80%.

Question: What about the DC50 (CDK6) of the same compound?
Answer: The DC50 was 50 to 200 nM.

Question: And the Dmax (CDK6)?
Answer: The Dmax was over 80%.

Question: What does the source list for `CC(=O)c1c(C)c2cnc(Nc3ccc(N4CCN(CCN5CCN(c6ccc7c(c6)CN(C6CCC(=O)NC6=O)C7=O)CC5)CC4)cn3)nc2n(C2CCCC2)c1=O` (stereo not shown) [Compound 68, 3-(5-(4-(2-(4-(6-((6-acetyl-8-cyclopentyl-5-methyl-7-oxo-7,8-dihydropyrido[2,3-d]pyrimidin-2-yl)amino)pyridin-3-yl)piperazin-1-yl)ethyl)piperazin-1-yl)-1-oxoisoindolin-2-yl)piperidine-2,6-dione]?
Answer: IC50 [1]: 50 to 200 nM; DC50 (CDK4): 50 to 200 nM; Dmax (CDK4): > 60%; DC50 (CDK6): 50 to 200 nM; Dmax (CDK6): > 80%

Question: With `CC(=O)c1c(C)c2cnc(Nc3ccc(N4CCN(CCC5CCN(c6ccc7c(c6)C(=O)N(C6CCC(=O)NC6=O)C7=O)CC5)CC4)cn3)nc2n(C2CCCC2)c1=O` (stereo not shown) [Compound 69, 5-(4-(2-(4-(6-((6-acetyl-8-cyclopentyl-5-methyl-7-oxo-7,8-dihydropyrido[2,3-d]pyrimidin-2-yl)amino)pyridin-3-yl)piperazin-1-yl)ethyl)piperidin-1-yl)-2-(2,6-dioxopiperidin-3-yl)isoindoline-1,3-dione] as the compound, how does the IC50 [1] read?
Answer: Its IC50 is 50 to 200 nM.

Question: What about the DC50 (CDK4) of the same compound?
Answer: Its DC50 is 50 to 200 nM.

Question: And the Dmax (CDK4)?
Answer: Its Dmax is over 60%.

Question: And the DC50 (CDK6)?
Answer: The DC50 was 50 to 200 nM.

Question: And the Dmax (CDK6)?
Answer: The Dmax was over 60%.

Question: Which results are given for `CC(=O)c1c(C)c2cnc(Nc3ccc(N4CCN(CCC5CCN(c6ccc7c(c6)CN(C6CCC(=O)NC6=O)C7=O)CC5)CC4)cn3)nc2n(C2CCCC2)c1=O` (stereo not shown) [Compound 70, 3-(5-(4-(2-(4-(6-((6-acetyl-8-cyclopentyl-5-methyl-7-oxo-7,8-dihydropyrido[2,3-d]pyrimidin-2-yl)amino)pyridin-3-yl)piperazin-1-yl)ethyl)piperidin-1-yl)-1-oxoisoindolin-2-yl) piperidine-2,6-dione]?
Answer: IC50 [1]: 50 to 200 nM; DC50 (CDK4): 50 to 200 nM; Dmax (CDK4): > 50%; DC50 (CDK6): 50 to 200 nM; Dmax (CDK6): > 60%

Question: `CC(=O)c1c(C)c2cnc(Nc3ccc(N4CCN(CCN5CCC(c6ccc7c(c6)C(=O)N(C6CCC(=O)NC6=O)C7=O)CC5)CC4)cn3)nc2n(C2CCCC2)c1=O` (stereo not shown) [Compound 71, 5-(1-(2-(4-(6-((6-acetyl-8-cyclopentyl-5-methyl-7-oxo-7,8-dihydropyrido[2,3-d]pyrimidin-2-yl)amino)pyridin-3-yl)piperazin-1-yl)ethyl)piperidin-4-yl)-2-(2,6-dioxopiperidin-3-yl)isoindoline-1,3-dione] was tested. Which IC50 [1] did it give?
Answer: The IC50 was 50 to 200 nM.

Question: And the DC50 (CDK4)?
Answer: Its DC50 is over 200 nM.

Question: What about the Dmax (CDK4) of the same compound?
Answer: Its Dmax is over 60%.

Question: And the DC50 (CDK6)?
Answer: The DC50 was over 200 nM.

Question: What about the Dmax (CDK6) of the same compound?
Answer: Its Dmax is over 60%.

Question: How did the IC50 [1] turn out when `CC(=O)c1c(C)c2cnc(Nc3ccc(N4CCN(CCN5CCC(c6ccc7c(c6)CN(C6CCC(=O)NC6=O)C7=O)CC5)CC4)cn3)nc2n(C2CCCC2)c1=O` (stereo not shown) [Compound 72, 3-(5-(1-(2-(4-(6-((6-acetyl-8-cyclopentyl-5-methyl-7-oxo-7,8-dihydropyrido[2,3-d]pyrimidin-2-yl)amino)pyridin-3-yl)piperazin-1-yl)ethyl)piperidin-4-yl)-1-oxoisoindolin-2-yl)piperidine-2,6-dione] was run?
Answer: Its IC50 is 50 to 200 nM.

Question: What about the DC50 (CDK4) of the same compound?
Answer: The DC50 was 50 to 200 nM.

Question: What about the Dmax (CDK4) of the same compound?
Answer: The Dmax was over 60%.

Question: And the DC50 (CDK6)?
Answer: Its DC50 is over 200 nM.

Question: What about the Dmax (CDK6) of the same compound?
Answer: The Dmax was over 50%.

Question: `Cc1nc2c(F)cc(-c3nc(Nc4ccc(CN5CCN(CCCNc6ccc7c(c6)CN(C6CCC(=O)NC6=O)C7=O)CC5)cn4)ncc3F)cc2n1C(C)C` (stereo not shown) [Compound 74, 3-(5-((3-(4-((6-((5-fluoro-4-(4-fluoro-1-isopropyl-2-methyl-1H-benzo[d]imidazol-6-yl)pyrimidin-2-yl)amino)pyridin-3-yl)methyl)piperazin-1-yl)propyl)amino)-1-oxoisoindolin-2-yl)piperidine-2,6-dione] was tested. Which IC50 [1] did it give?
Answer: The IC50 was under 50 nM.

Question: What about the DC50 (CDK4) of the same compound?
Answer: Its DC50 is under 50 nM.

Question: What about the Dmax (CDK4) of the same compound?
Answer: The Dmax was over 80%.

Question: What about the DC50 (CDK6) of the same compound?
Answer: Its DC50 is under 50 nM.

Question: What about the Dmax (CDK6) of the same compound?
Answer: The Dmax was over 80%.

Question: Which IC50 [1] does the source give for `CN(C)C(=O)c1cc2cnc(Nc3ccc(N4CCN(CCCNc5ccc6c(c5)C(=O)N(C5CCC(=O)NC5=O)C6=O)CC4)cn3)nc2n1C1CCCC1` (stereo not shown) [Compound 75, 7-cyclopentyl-2-((5-(4-(3-((2-(2,6-dioxopiperidin-3-yl)-1,3-dioxoisoindolin-5-yl)amino)propyl)piperazin-1-yl)pyridin-2-yl)amino)-N,N-dimethyl-7H-pyrrolo[2,3-d]pyrimidine-6-carboxamide] here?
Answer: Its IC50 is under 50 nM.

Question: What about the DC50 (CDK4) of the same compound?
Answer: The DC50 was under 50 nM.

Question: And the Dmax (CDK4)?
Answer: The Dmax was over 80%.

Question: And the DC50 (CDK6)?
Answer: Its DC50 is under 50 nM.

Question: And the Dmax (CDK6)?
Answer: Its Dmax is over 80%.

Question: Which IC50 [1] does the source give for `CN(C)C(=O)c1cc2cnc(Nc3ccc(N4CCN(CCCNc5ccc6c(c5)CN(C5CCC(=O)NC5=O)C6=O)CC4)cn3)nc2n1C1CCCC1` (stereo not shown) [Compound 76, 7-cyclopentyl-2-((5-(4-(3-((2-(2,6-dioxopiperidin-3-yl)-1-oxoisoindolin-5-yl)amino)propyl)piperazin-1-yl)pyridin-2-yl)amino)-N,N-dimethyl-7H-pyrrolo[2,3-d]pyrimidine-6-carboxamide] here?
Answer: Its IC50 is under 50 nM.

Question: And the “inhibition of cell proliferation of Mino cells” value [1]?
Answer: The value was “dose-dependent inhibition of cell proliferation”.

Question: What about the DC50 (CDK4) of the same compound?
Answer: Its DC50 is under 50 nM.

Question: And the Dmax (CDK4)?
Answer: Its Dmax is over 80%.

Question: What about the DC50 (CDK6) of the same compound?
Answer: The DC50 was under 50 nM.

Question: What about the Dmax (CDK6) of the same compound?
Answer: The Dmax was over 80%.

Question: `CC(=O)c1c(C)c2cnc(Nc3ccc(N4CCN(C5CCN(c6cccc7c6C(=O)N(C6CCC(=O)NC6=O)C7=O)CC5)CC4)cn3)nc2n(C2CCCC2)c1=O` (stereo not shown) [Compound 77, 4-(4-(4-(6-((6-acetyl-8-cyclopentyl-5-methyl-7-oxo-7,8-dihydropyrido[2,3-d]pyrimidin-2-yl)amino)pyridin-3-yl)piperazin-1-y1)piperidin-1-yl)-2-(2,6-dioxopiperidin-3-yl) isoindoline-1,3-dione] was tested. Which IC50 [1] did it give?
Answer: Its IC50 is 50 to 200 nM.

Question: And the DC50 (CDK4)?
Answer: Its DC50 is 50 to 200 nM.

Question: What about the Dmax (CDK4) of the same compound?
Answer: The Dmax was over 60%.

Question: And the DC50 (CDK6)?
Answer: Its DC50 is 50 to 200 nM.

Question: What about the Dmax (CDK6) of the same compound?
Answer: The Dmax was over 60%.

Question: Which results are given for `CC(=O)c1c(C)c2cnc(Nc3ccc(N4CCN(CC5CCN(c6cccc7c6C(=O)N(C6CCC(=O)NC6=O)C7=O)CC5)CC4)cn3)nc2n(C2CCCC2)c1=O` (stereo not shown) [Compound 78, 4-(4-((4-(6-((6-acetyl-8-cyclopentyl-5-methyl-7-oxo-7,8-dihydropyrido[2,3-d]pyrimidin-2-yl)amino)pyridin-3-yl)piperazin-1-yl)methyl)piperidin-1-yl)-2-(2,6-dioxopiperidin-3-yl) isoindoline-1,3-dione]?
Answer: IC50 [1]: 50 to 200 nM; DC50 (CDK4): 50 to 200 nM; Dmax (CDK4): > 60%; DC50 (CDK6): 50 to 200 nM; Dmax (CDK6): > 60%

Question: What does the source list for `CC(=O)c1c(C)c2cnc(Nc3ccc(N4CCN(C5CN(c6cccc7c6C(=O)N(C6CCC(=O)NC6=O)C7=O)C5)CC4)cn3)nc2n(C2CCCC2)c1=O` (stereo not shown) [Compound 79, 4-(3-(4-(6-((6-acetyl-8-cyclopentyl-5-methyl-7-oxo-7,8-dihydropyrido[2,3-d]pyrimidin-2-yl)amino)pyridin-3-yl)piperazin-1-yl)azetidin-1-yl)-2-(2,6-dioxopiperidin-3-yl)isoindoline-1,3-dione]?
Answer: IC50 [1]: 50 to 200 nM; DC50 (CDK4): 50 to 200 nM; Dmax (CDK4): > 60%; DC50 (CDK6): 50 to 200 nM; Dmax (CDK6): > 60%

Question: With `CC(=O)c1c(C)c2cnc(Nc3ccc(N4CCN(CC5CN(c6ccc7c(c6)C(=O)N(C6CCC(=O)NC6=O)C7=O)C5)CC4)cn3)nc2n(C2CCCC2)c1=O` (stereo not shown) [Compound 80, 5-(3-((4-(6-((6-acetyl-8-cyclopentyl-5-methyl-7-oxo-7,8-dihydropyrido[2,3-d]pyrimidin-2-yl)amino)pyridin-3-yl)piperazin-1-yl)methyl)azetidin-1-yl)-2-(2,6-dioxopiperidin-3-yl) isoindoline-1,3-dione] as the compound, how does the IC50 [1] read?
Answer: The IC50 was under 50 nM.

Question: And the DC50 (CDK4)?
Answer: The DC50 was under 50 nM.

Question: And the Dmax (CDK4)?
Answer: The Dmax was over 80%.

Question: What about the DC50 (CDK6) of the same compound?
Answer: The DC50 was under 50 nM.

Question: What about the Dmax (CDK6) of the same compound?
Answer: The Dmax was over 80%.

Question: Which IC50 [1] does the source give for `CC(=O)c1c(C)c2cnc(Nc3ccc(N4CCN(CC5CN(c6cccc7c6C(=O)N(C6CCC(=O)NC6=O)C7=O)C5)CC4)cn3)nc2n(C2CCCC2)c1=O` (stereo not shown) [Compound 81, 4-(3-((4-(6-((6-acetyl-8-cyclopentyl-5-methyl-7-oxo-7,8-dihydropyrido[2,3-d]pyrimidin-2-yl)amino)pyridin-3-yl)piperazin-1-yl)methyl)azetidin-1-yl)-2-(2,6-dioxopiperidin-3-yl) isoindoline-1,3-dione] here?
Answer: Its IC50 is under 50 nM.

Question: What about the DC50 (CDK4) of the same compound?
Answer: The DC50 was 50 to 200 nM.

Question: What about the Dmax (CDK4) of the same compound?
Answer: The Dmax was over 80%.

Question: And the DC50 (CDK6)?
Answer: Its DC50 is 50 to 200 nM.

Question: What about the Dmax (CDK6) of the same compound?
Answer: Its Dmax is over 80%.
